Article PMC2363132, “Phase I and pharmacokinetic study of DACA (XR5000): a novel inhibitor of topoisomerase I and II” (British Journal of Cancer, 1999)
Like-named read-outs stand apart in the source and are kept apart here.

Key:
[1] = parameters: method as in Evans et al, 1992; Paxton et al, 1992, 1993a, 1993b; conditions: preclinical pharmacology studies; ref Evans et al, 1992; Paxton et al, 1992, 1993a, 1993b; cited from earlier work
[2] = test system: sublines of the Jurkat human leukaemia cell line, which have reduced amounts of topoisomerase II; parameters: method as in Finlay et al, 1993; conditions: ref Finlay et al, 1993; cited from earlier work
Lewis lung carcinoma = test system: Lewis lung carcinoma; parameters: method as in Atwell et al, 1987; Finlay and Baguley, 1989; conditions: Lewis lung carcinoma in mice; ref Atwell et al, 1987; Finlay and Baguley, 1989; cited from earlier work
[3] = test system: patients with solid tumours
metastatic solid tumour = test: Anti-tumour activity in patients, WHO criteria; format: in vivo, human; conditions: 41 patients, 9-800 mg m-2
murine 16/C tumour = test system: murine 16/C tumour; parameters: method as in Baguley et al, 1995; conditions: ref Baguley et al, 1995; cited from earlier work
[4] = test system: multi-drug resistant subline of the P388 leukaemia expressing the P-glycoprotein; parameters: method as in Baguley et al, 1990; conditions: ref Baguley et al, 1990; cited from earlier work
[5] = human, in vivo
Colon 38 = test system: Colon 38; parameters: method as in Baguley et al, 1995; conditions: Colon 38 tumour; ref Baguley et al, 1995; cited from earlier work
clinical = conditions: human, in vivo; for Cmax: 800 mg
mice = conditions: murine data, cited from earlier work
L1210 leukaemia = conditions: cited from earlier work
[6] = parameters: method as in Evans et al, 1992; Paxton et al, 1992, 1993a, 1993b; conditions: preclinical; ref Evans et al, 1992; Paxton et al, 1992, 1993a, 1993b; cited from earlier work
P388 leukaemia = conditions: cited from earlier work
Colon 11 A = test system: Colon 11 A; parameters: method as in Baguley et al, 1995; conditions: Colon 11 A tumour; ref Baguley et al, 1995; cited from earlier work
cancer patients = test system: cancer patients; parameters: method as in Abigerges et al, 1996; conditions: phase I trial; ref Abigerges et al, 1996; cited from earlier work

## CN(C)CCNC(=O)c1cccc2cc3ccccc3nc12.Cl.Cl [DACA, N-[2-(dimethylamino)ethyl] acridine-4-carboxamide dihydrochloride]
[1]
  tissue levels in brain, liver, kidney and heart relative to plasma: substantially higher
[2]
  sensitivity of Jurkat sublines with reduced topoisomerase II: retain sensitivity
Lewis lung carcinoma
  activity in vivo: highly active
[3]; 3 h i.v. infusion on 3 successive days, repeated every 3 weeks
  maximum tolerated dose (MTD): 800 mg m-2 d-1
[3]; 3 h i.v. infusion on 3 successive days, 800 mg m-2
  dose-limiting toxicity (DLT): pain during the infusion
[3]; all dose levels
  clinically significant myelosuppression: rare
Metastatic solid tumour
  objective responses according to WHO criteria: no objective responses
Murine 16/C tumour
  activity in vivo: highly active
[4]
  activity against multi-drug resistant P388 subline expressing P-glycoprotein: maintains activity
[5]
  T1/2: 2.08 h
  Vss: 145.21
  highest AUC on day 3 of all patients: 54.2
  plasma clearance: 81.11
  relationship between dose and AUC: linear relationship
Colon 38
  activity in vivo: highly active
clinical; female, Cmax
  Cmax: 3150 ng/mL
clinical; Cmax (range)
  Cmax: 2310 to 12100 ng/mL
clinical; T1/2
  half-life: 2.22 h
clinical; Tmax
  Tmax: 2.91 h
clinical; Vss
  Vd: 143 L
clinical; plasma clearance
  clearance: 1400 mL/min
mice; five consecutive daily i.v. doses
  LD10: approximately 30 mg kg-1 per day
mice; single i.v. dose
  LD10: 58 mg/kg
L1210 leukaemia
  activity in vivo: only moderate activity
[6]
  unbound fraction in mouse plasma: 15.8%
P388 leukaemia
  activity in vivo: only moderate activity
Colon 11 A
  activity in vivo: highly active

## COc1cccc2c1C(=O)c1c(O)c3c(c(O)c1C2=O)C[C@@](O)(C(=O)CO)C[C@@H]3O[C@H]1C[C@H](N)[C@H](O)[C@H](C)O1 [doxorubicin]
[2]
  sensitivity of Jurkat sublines with reduced topoisomerase II: highly resistant

## COc1cc([C@@H]2c3cc4c(cc3[C@@H](O[C@@H]3O[C@@H]5CO[C@@H](C)O[C@H]5[C@H](O)[C@H]3O)[C@H]3COC(=O)[C@H]23)OCO4)cc(OC)c1O [etoposide]
[2]
  sensitivity of Jurkat sublines with reduced topoisomerase II: highly resistant

## Cc1cnc(NCCCN(C)C)c2c1[nH]c1ccc3cc(O)ccc3c12 [intoplicine]
Cancer patients
  dose-limiting toxicity: hepatotoxicity
